Common to all, as to assay: biochemical
Holding throughout (assay type): binding

The target in one experiment is T1, STAT4 (Homo sapiens, UniProt Q14765).
T1 construct: made in house; host or cells: HEK293 (transient transfection), unpurified extract
T1 sequence (Q14765 1-748): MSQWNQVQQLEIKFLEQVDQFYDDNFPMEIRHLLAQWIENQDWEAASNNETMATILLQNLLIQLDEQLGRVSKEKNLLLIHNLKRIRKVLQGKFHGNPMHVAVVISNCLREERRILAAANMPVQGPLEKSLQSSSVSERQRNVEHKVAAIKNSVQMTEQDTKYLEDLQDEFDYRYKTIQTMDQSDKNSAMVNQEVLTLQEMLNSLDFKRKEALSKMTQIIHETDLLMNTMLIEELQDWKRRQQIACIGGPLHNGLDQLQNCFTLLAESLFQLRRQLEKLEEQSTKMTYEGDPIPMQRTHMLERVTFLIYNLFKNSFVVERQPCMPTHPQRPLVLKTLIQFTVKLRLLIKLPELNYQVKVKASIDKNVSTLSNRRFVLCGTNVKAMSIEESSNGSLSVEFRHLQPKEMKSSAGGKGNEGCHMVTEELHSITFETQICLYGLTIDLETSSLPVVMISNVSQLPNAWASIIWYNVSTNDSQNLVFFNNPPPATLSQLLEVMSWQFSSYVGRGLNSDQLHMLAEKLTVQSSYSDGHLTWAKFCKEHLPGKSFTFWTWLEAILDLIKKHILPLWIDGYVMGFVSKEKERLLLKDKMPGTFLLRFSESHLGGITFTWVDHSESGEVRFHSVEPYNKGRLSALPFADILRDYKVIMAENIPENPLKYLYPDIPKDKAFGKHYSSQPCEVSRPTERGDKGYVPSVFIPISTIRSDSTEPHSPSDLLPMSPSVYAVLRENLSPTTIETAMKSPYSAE

The target in a further experiment is T2, STAT6 (Homo sapiens, UniProt P42226).
T2 construct: made in house; host or cells: HEK293 (transient transfection), unpurified extract
T2 sequence (P42226 1-847): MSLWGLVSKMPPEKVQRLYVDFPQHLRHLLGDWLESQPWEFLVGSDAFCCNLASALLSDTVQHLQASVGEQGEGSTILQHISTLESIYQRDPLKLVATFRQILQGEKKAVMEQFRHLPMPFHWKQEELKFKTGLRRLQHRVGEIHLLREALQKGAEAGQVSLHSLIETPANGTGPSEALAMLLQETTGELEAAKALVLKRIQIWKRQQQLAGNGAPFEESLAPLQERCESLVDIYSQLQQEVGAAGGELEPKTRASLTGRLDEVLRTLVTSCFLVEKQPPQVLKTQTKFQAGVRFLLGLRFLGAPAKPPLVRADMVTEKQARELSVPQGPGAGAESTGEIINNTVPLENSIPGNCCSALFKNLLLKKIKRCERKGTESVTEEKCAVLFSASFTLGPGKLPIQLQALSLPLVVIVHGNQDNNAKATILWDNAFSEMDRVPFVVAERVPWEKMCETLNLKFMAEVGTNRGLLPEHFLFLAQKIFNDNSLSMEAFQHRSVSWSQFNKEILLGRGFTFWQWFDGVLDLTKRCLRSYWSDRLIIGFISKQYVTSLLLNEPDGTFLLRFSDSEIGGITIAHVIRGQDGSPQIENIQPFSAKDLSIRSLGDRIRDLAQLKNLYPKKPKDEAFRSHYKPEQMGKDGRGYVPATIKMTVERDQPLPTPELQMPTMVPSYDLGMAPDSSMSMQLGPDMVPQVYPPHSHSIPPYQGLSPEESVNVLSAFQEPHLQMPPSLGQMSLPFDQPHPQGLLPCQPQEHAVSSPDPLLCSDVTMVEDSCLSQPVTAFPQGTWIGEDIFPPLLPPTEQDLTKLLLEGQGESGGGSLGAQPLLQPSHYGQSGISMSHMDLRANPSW

For the next experiment, the target named is T3, PIK3R1(SH2dom.C-term.) (Homo sapiens, UniProt P27986).
T3 construct: SH2dom.C-term. denotes SH2 domain closest to C-terminus of protein; made in house; host or cells: HEK293 (transient transfection, unpurified extract)
T3 sequence (P27986 624-718 limits assumed): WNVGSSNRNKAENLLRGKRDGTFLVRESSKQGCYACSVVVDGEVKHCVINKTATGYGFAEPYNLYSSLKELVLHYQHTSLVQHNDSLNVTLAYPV

Another experiment concerns the target T4, PIK3R2(SH2dom.C-term.) (Homo sapiens, UniProt O00459).
T4 construct: SH2dom.C-term. denotes SH2 domain closest to C-terminus of protein; made in house; host or cells: HEK293 (transient transfection, unpurified extract)
T4 sequence (O00459 622-716 limits assumed): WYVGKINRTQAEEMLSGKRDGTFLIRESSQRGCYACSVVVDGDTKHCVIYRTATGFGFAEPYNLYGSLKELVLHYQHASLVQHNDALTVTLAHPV

The target in another experiment is T5, PIK3R3(SH2dom.C-term.) (Homo sapiens, UniProt Q92569).
T5 construct: SH2dom.C-term. denotes SH2 domain closest to C-terminus of protein; made in house; host or cells: HEK293 (transient transfection, unpurified extract)

In a further experiment the target is T6, ABL1 (Homo sapiens, UniProt P00519).
T6 construct: the DNA-tagged SH2 domain concentrations used in this study were <0.1 nM; made in house; host or cells: HEK293 (transient transfection; unpurified extract)
T6 sequence (P00519 127-217 limits assumed): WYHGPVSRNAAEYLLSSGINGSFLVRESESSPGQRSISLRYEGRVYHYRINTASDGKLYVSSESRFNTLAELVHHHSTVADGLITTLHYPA

Another experiment deals with T7, STAT5B (Homo sapiens, UniProt P51692).
T7 construct: made in house; host or cells: HEK293 (transient transfection), unpurified extract
T7 sequence (P51692 1-787): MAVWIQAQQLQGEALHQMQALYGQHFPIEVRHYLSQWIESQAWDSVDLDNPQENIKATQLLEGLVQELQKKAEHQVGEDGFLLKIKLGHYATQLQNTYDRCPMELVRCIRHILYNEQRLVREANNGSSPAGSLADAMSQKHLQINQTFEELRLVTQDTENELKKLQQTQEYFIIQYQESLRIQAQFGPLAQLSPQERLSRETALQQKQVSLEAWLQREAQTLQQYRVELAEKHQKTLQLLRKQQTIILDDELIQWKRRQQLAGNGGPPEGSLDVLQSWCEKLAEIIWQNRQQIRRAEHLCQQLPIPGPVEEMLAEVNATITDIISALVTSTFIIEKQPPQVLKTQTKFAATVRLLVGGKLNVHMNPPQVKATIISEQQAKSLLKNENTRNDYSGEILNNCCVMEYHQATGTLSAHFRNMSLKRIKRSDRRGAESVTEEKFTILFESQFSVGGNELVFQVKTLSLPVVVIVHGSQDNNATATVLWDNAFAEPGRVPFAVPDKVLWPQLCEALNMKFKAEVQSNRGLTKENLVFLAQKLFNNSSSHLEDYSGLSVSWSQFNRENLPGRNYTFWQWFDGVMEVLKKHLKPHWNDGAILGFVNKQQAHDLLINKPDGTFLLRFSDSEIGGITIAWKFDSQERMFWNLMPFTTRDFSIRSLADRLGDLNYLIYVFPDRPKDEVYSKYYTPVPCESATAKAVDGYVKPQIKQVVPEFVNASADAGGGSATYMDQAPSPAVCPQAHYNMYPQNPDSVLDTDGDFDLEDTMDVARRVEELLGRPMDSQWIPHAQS

The next experiment concerns the target T8, STAT5B(N642H) (Homo sapiens, UniProt P51692, N642H).
T8 construct: made in house; host or cells: HEK293 (transient transfection), unpurified extract
T8 sequence (P51692 1-787 N642H): T7 sequence (P51692 1-787) with N642H

A further experiment concerns the target T9, STAT1 (Homo sapiens, UniProt P42224).
T9 construct: made in house; host or cells: HEK293 (transient transfection), unpurified extract
T9 sequence (P42224 1-750): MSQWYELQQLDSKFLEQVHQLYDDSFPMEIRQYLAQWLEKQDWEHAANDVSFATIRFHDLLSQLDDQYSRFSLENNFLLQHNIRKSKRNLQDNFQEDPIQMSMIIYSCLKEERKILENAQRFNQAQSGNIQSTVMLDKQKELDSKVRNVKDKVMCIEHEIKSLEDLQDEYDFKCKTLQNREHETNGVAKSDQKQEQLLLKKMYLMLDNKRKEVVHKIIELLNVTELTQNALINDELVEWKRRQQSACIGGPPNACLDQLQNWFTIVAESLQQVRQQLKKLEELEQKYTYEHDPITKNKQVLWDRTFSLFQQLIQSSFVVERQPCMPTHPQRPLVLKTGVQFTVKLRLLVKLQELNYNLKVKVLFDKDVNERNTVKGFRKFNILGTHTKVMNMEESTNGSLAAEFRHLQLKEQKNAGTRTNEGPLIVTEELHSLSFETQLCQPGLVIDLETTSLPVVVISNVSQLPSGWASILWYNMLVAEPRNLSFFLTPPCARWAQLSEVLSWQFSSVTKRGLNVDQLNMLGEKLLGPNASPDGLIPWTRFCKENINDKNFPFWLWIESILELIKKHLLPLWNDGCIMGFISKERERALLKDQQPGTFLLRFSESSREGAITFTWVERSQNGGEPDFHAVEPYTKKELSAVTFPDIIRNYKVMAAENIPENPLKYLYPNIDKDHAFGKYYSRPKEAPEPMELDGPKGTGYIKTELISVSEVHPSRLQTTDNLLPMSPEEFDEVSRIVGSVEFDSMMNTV

The target in a further experiment is T10, FER (Homo sapiens, UniProt P16591).
T10 construct: the DNA-tagged SH2 domain concentrations used in this study were <0.1 nM; made in house; host or cells: HEK293 (transient transfection; unpurified extract)
T10 sequence (P16591 460-550 limits assumed): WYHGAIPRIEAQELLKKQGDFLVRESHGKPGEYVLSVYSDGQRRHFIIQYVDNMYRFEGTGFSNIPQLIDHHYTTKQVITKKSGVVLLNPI

In general, Kd refers to the free concentration of one partner at which half of the binding sites on the other are occupied at equilibrium, for simple one-to-one binding. A low value points to tighter binding.

Structures are written as SMILES. Residue numbers refer to the chain shown, from its start. Non-standard residues stand in square brackets, D forms with d. Residues, ends and D or L forms follow the SMILES beside them. pY = N[C@@H](Cc1ccc(OP(=O)(O)O)cc1)C(=O)O

For `CSCC[C@H](NC(=O)[C@H](CC(=O)O)NC(=O)[C@H](Cc1ccc(OP(=O)(O)O)cc1)NC(=O)[C@H](CC(=O)O)NC(=O)[C@H](Cc1ccccc1)NC(=O)[C@H](CO)NC(C)=O)C(=O)N1CCC[C@H]1C(=O)N[C@@H](Cc1c[nH]cn1)C(=O)N[C@H](C(=O)N[C@@H](CC(C)C)C(N)=O)C(C)C` [Ac-SFDpYDMPHVL-NH2] (Ac-SFD[pY]DMPHVL-NH2), on STAT4, the Kd came to 1280 ± 133 nM.
`CC[C@H](C)[C@H](NC(=O)[C@H](CC(C)C)NC(=O)[C@H](CC(=O)O)NC(=O)[C@H](CCC(N)=O)NC(=O)[C@H](Cc1ccccc1)NC(=O)[C@@H]1CCCN1C(=O)[C@H](CCCCN)NC(=O)[C@H](Cc1ccc(OP(=O)(O)O)cc1)NC(C)=O)C(N)=O` (Ac-[pY]KPFQDLI-NH2): binding on STAT6 was put at a Kd of 928 ± 249 nM.
In the case of `CSCC[C@H](NC(=O)[C@@H]1CCCN1C(=O)[C@@H](NC(=O)[C@H](Cc1ccc(OP(=O)(O)O)cc1)NC(=O)CNC(C)=O)C(C)C)C(=O)N[C@@H](CC(C)C)C(=O)O` [Ac-GpYVPML-OH] (Ac-G[pY]VPML-OH), the figures for the Kd at PIK3R1(SH2dom.C-term.), on PIK3R2(SH2dom.C-term.) and on PIK3R3(SH2dom.C-term.) were 4.24 ± 0.48 nM, 4.82 ± 1.95 nM and 2.27 ± 0.32 nM, respectively.
At ABL1, `CC(=O)N[C@@H](CCCCN)C(=O)N[C@@H](CCC(=O)O)C(=O)N[C@@H](CCC(=O)O)C(=O)NCC(=O)N[C@@H](Cc1ccc(OP(=O)(O)O)cc1)C(=O)N[C@@H](CCC(=O)O)C(=O)N[C@@H](CC(C)C)C(=O)N1CCC[C@H]1C(=O)N[C@@H](Cc1ccc(O)cc1)C(=O)N[C@@H](CC(N)=O)C(=O)N1CCC[C@H]1C(N)=O` [Ac-KEEGpYELPYNP-NH2] showed a Kd of 28800 ± 8130 nM.
Take `CC(C)C[C@H](NC(=O)[C@H](Cc1c[nH]c2ccccc12)NC(=O)[C@H](CCCCN)NC(=O)[C@H](CC(=O)O)NC(=O)[C@H](CC(C)C)NC(=O)[C@@H](NC(=O)[C@H](CC(C)C)NC(=O)[C@H](Cc1ccc(OP(=O)(O)O)cc1)NC(=O)[C@@H](NC(=O)[C@H](CC(=O)O)NC(=O)[C@@H](N)CCC(N)=O)[C@@H](C)O)C(C)C)C(=O)O` (H-QDT[pY]LVLDKWL-OH): the Kd was 1020 ± 179 nM on STAT5B and 97.8 ± 43.3 nM on STAT5B(N642H).
For the molecule `CC(=O)NCC(=O)N[C@@H](Cc1ccc(OP(=O)(O)O)cc1)C(=O)N[C@@H](CC(=O)O)C(=O)N[C@@H](CCCCN)C(=O)N1CCC[C@H]1C(=O)N[C@@H](Cc1c[nH]cn1)C(=O)N[C@H](C(=O)N[C@@H](CC(C)C)C(N)=O)C(C)C` [Ac-GpYDKPHVL-NH2] (Ac-G[pY]DKPHVL-NH2), the Kd at STAT1 stood at 155 ± 38.2 nM.
The molecule `CC(=O)N[C@@H](CC(=O)O)C(=O)N[C@@H](CCC(=O)O)C(=O)N[C@@H](Cc1ccc(OP(=O)(O)O)cc1)C(=O)N[C@@H](CCC(=O)O)C(=O)N[C@@H](CC(N)=O)C(=O)N[C@H](C(=O)N[C@@H](CC(=O)O)C(N)=O)C(C)C` [Ac-DEpYENVD-NH2] (Ac-DE[pY]ENVD-NH2) displayed a Kd at FER of 7770 ± 2130 nM.
